Assay results taken from patent US12344631B2, “C17 polar-substituted heteroaromatic synthetic triterpenoids and methods of use thereof” (REATA PHARMACEUTICALS, INC., priority 2019, dated 2025).

Key:
[1] = tested on: AREc32 reporter cell line (antioxidant response element of rat Gsta2, Nrf2 target gene); assay: AREc32 luciferase reporter activation; type: cell-based, human; settings: for AREc32 EC2X Relative to RTA 402 (fold) (Mean ± SD): average of ratios from replicate experiments, benchmark RTA 402; for EC (2-fold): human, Arec32, 19 h, concentration increasing luminescence signal 2-fold above vehicle, nineteen hours, read-out: AREc32 EC2X (nM) (Mean ± SD)
Procedure: […] The effect of several compounds disclosed herein on luciferase reporter activation was assessed in the AREc32 reporter cell line (see Table 10 and Table 11). This cell line is derived from human breast carcinoma MCF-7 cells and is stably transfected with a luciferase reporter gene under the transcriptional control of eight copies of the antioxidant response element from the rat Gsta2 gene, an Nrf2 target gene ([…] et al., 1990). […] Twenty-four hours after plating, cells were treated with vehicle (DMSO) or test compounds at concentrations ranging from 0.03 to 1000 nM for nineteen hours. Media was removed and 100 μL of 1:1 mixture of the One-Glo Luciferase assay reagent and culture medium was added to each well. After incubation for 5 min at room temperature, the luminescence signal was measured on a PHERAstar plate reader. The EC2X value was determined using Excel and GraphPad Prism software. The fold increase in luminescence signal for cells treated with each concentration of compound relative to cells treated with vehicle was determined and a dose-response curve was generated. The dose-response curve was fit using nonlinear regression analysis and used to extrapolate the EC2X value.

RAW 264.7 cells = assay: Nitric oxide suppression assay (IFNγ-induced NO production); type: cell-based, mouse; settings: for IC50: Mus musculus, RAW264.7, RAW 264.7 cells, 2 h pretreatment, 20 ng/mL interferon gamma 24 h, nitrite by Griess, read-out: NO IC50 (nM) (Mean ± SD); for NO IC50 Relative to RTA 402 (fold) (Mean ± SD): average of ratios from replicate experiments, benchmark RTA 402
Procedure: Tissue Culture. RAW 264.7, a mouse macrophage cell line, was obtained from American Type Culture Collection (Manassas VA) and maintained in the log phase of growth in Roswell Park Memorial Institute Medium 1640 (RPMI 1640) supplemented with 10% heat inactivated fetal bovine serum (FBS) and 1% penicillin-streptomycin. Cells were cultured and maintained in a humidified incubator at 37° C. under 5% CO2. Cells were sub-cultured every 3 days. […] All cell culture supplies were obtained from Life Technologies (Grand Island, NY) and VWR (Radnor, PA). Nitric Oxide Suppression Assay. RAW 264.7 cells were plated 1 day in advance of experimental treatments at a concentration of 30,000 cells per well onto Falcon-96 well clear bottom plates (Corning, NY) in a total volume of 200 μL per well using RPMI 1640 supplemented with 0.5% fetal bovine serum and 1% penicillin-streptomycin. The next day, cells were pretreated with compounds serially diluted from 1000× stocks. All compounds were dissolved in dimethyl sulfoxide (DMSO) at 10 mM stock solutions. Compounds were subsequently diluted in DMSO and RPMI 1640. Each well received a final concentration of 0.1% DMSO. Cells were pretreated for 2 hours and incubation at 37° C., followed by treatment with 20 ng/mL of interferon gamma (R&D Systems, Minneapolis, MN) per well for 24 hours. […] Afterwards, 50 μL of cell culture supernatant was transferred from each well into a new Falcon-96 well clear bottom plate. […] Afterwards, air bubbles were removed using ethanol vapor and absorbance was measured using a Spectramax M2e plate reader with a wavelength set to 525 nm. Viability was assessed using WST-1 cell proliferation reagent from Roche (Basel, Switzerland). After media was removed for the Nitric Oxide suppression assay, 15 μL of WST-1 reagent was added to each well of cells. Plates were briefly mixed on an orbital shaker and the cells were incubated at 37° C. for 30 minutes. Absorbance was measured using a Spectramax M2e plate reader with wavelengths set to 440 nm and 700 nm. For the ability of compounds to suppress the increase in nitric oxide release caused by interferon gamma, the absolute amount of nitrite that was produced in each well was extrapolated from the nitrite standards using a linear regression fit. All values were then normalized to the DMSO-interferon gamma treated wells and plotted as percent nitric oxide. IC50 values were calculated with a dependence on WST1 viability using Excel and/or GraphPad Prism (San Diego, CA).

[2] = tested on: AML-12 hepatocyte cell line; assay: Glutathione assay (total glutathione, GSH-Glo); type: cell-based, mouse
Procedure: The effect of compound treatment on total glutathione levels was evaluated in the mouse AML-12 hepatocyte cell line. Glutathione—a tripeptide consisting of cysteine, glutamate, and glycine—is the major thiol-containing protein within the cell and regulates cellular redox balance. Glutathione also plays important roles in detoxification, protein glutathionylation, and iron-sulfur cluster biogenesis (Bachhawat and Yadav, 2018). Nrf2 regulates the expression of many genes involved in glutathione synthesis and metabolism, including both subunits of glutamate cysteine ligase (GCL), the enzyme that catalyzes the rate limiting step of glutathione biosynthesis (Thimmulappa et al., 2002). […] The next day, cells were treated with vehicle (DMSO) or test compound (0.03 nM to 1000 nM). Each well received a final concentration of 0.1% DMSO. Cells were incubated at 37° C., 5% CO2 for 24 hours. Total glutathione concentrations were measured using the GSH-Glo Glutathione Assay kit (Promega) according to the manufacturer's instructions. Briefly, a standard curve was prepared by serially diluting the provided glutathione solution. […] After a 30-minute incubation at room temperature, 100 μL of Luciferin detection reagent was added to all sample and standard wells and incubated for 15 minutes. Luminescence was measured using a PHERAstar plate reader. The EC50 value was determined using Excel and GraphPad Prism software. The basal concentration of glutathione was set to 0% and the highest concentration of glutathione produced following treatment with a test compound was set to 100% and a dose-response curve was generated. The dose-response curve was fit using nonlinear regression analysis and used to extrapolate the EC50 value.

Row | SMILES | AREc32 EC2X Relative to RTA 402 (fold) (Mean ± SD) [1] | EC (2-fold) [1] [nM] | IC50 (RAW 264.7 cells) [nM] | NO IC50 Relative to RTA 402 (fold) (Mean ± SD) (RAW 264.7 cells) | EC50 ([2]; Mus musculus, AML12, AML-12 cells, 24 hours, total glutathione, read-out: GSH EC50 (nM) (Mean ± SD)) | GSH EC50 Relative to RTA 402 (fold) (Mean ± SD) ([2]; benchmark RTA 402)
1 | CC1(C)CC[C@]2(c3noc(CO)n3)CC[C@]3(C)[C@H](C(=O)C=C4[C@@]5(C)C=C(C#N)C(=O)C(C)(C)[C@@H]5CC[C@]43C)[C@@H]2C1 [Compound T4] | 1.04 ± 0.02 | 10.5 ± 1.03 | 1.82 | 0.48 ± 0.13 | 2.46 ± 1.8 | 0.89 ± 0.61
2 | COC(=O)NCCc1noc([C@]23CCC(C)(C)C[C@H]2[C@H]2C(=O)C=C4[C@@]5(C)C=C(C#N)C(=O)C(C)(C)[C@@H]5CC[C@@]4(C)[C@]2(C)CC3)n1 [Compound T17] |  |  | 0.75 | 0.48 |  | 
3 | C[C@@H]1C(=O)C(C#N)=C[C@]2(C)C3=CC(=O)[C@@H]4[C@@H]5CC(C)(C)CC[C@]5(c5noc(CF)n5)CC[C@@]4(C)[C@]3(C)CC[C@@H]12 [Compound T39] | 0.20 | 1.88 | 1.98 | 0.42 |  | 
4 | CC1(C)CC[C@]2(c3nc(C4CC4)no3)CC[C@]3(C)[C@H](C(=O)C=C4[C@@]5(C)C=C(C#N)C(=O)C(C)(C)[C@@H]5CC[C@]43C)[C@@H]2C1 [Compound T29] | 2.84 | 43.7 | 4.03 | 2.49 |  | 
5 | CC1(C)CC[C@]2(c3nc(C4CCCC4)no3)CC[C@]3(C)[C@H](C(=O)C=C4[C@@]5(C)C=C(C#N)C(=O)C(C)(C)[C@@H]5CC[C@]43C)[C@@H]2C1 [Compound T32] |  |  | 20.8 | 12.84 |  | 
6 | CC(=O)OCCc1noc([C@]23CCC(C)(C)C[C@H]2[C@H]2C(=O)C=C4[C@@]5(C)C=C(C#N)C(=O)C(C)(C)[C@@H]5CC[C@@]4(C)[C@]2(C)CC3)n1 [Compound T14] |  |  | 0.48 | 0.31 |  | 
7 | CC1(C)CC[C@]2(c3nc(CO)no3)CC[C@]3(C)[C@H](C(=O)C=C4[C@@]5(C)C=C(C#N)C(=O)C(C)(C)[C@@H]5CC[C@]43C)[C@@H]2C1 [Compound T42] | 0.26 | 2.58 | 0.44 | 0.32 |  | 
8 | CC1(C)CC[C@]2(c3nc(CC4CC4)no3)CC[C@]3(C)[C@H](C(=O)C=C4[C@@]5(C)C=C(C#N)C(=O)C(C)(C)[C@@H]5CC[C@]43C)[C@@H]2C1 [Compound T30] | 4.19 | 64.5 | 4.82 | 2.97 |  | 
9 | CC(=O)NCCc1noc([C@]23CCC(C)(C)C[C@H]2[C@H]2C(=O)C=C4[C@@]5(C)C=C(C#N)C(=O)C(C)(C)[C@@H]5CC[C@@]4(C)[C@]2(C)CC3)n1 [Compound T19] |  |  | 0.94 | 0.60 |  | 
10 | CC(C)c1noc([C@]23CCC(C)(C)C[C@H]2[C@H]2C(=O)C=C4[C@@]5(C)C=C(C#N)C(=O)C(C)(C)[C@@H]5CC[C@@]4(C)[C@]2(C)CC3)n1 [Compound T27] |  |  | 6.03 | 3.72 |  | 
11 | CCNC(=O)NCCc1noc([C@]23CCC(C)(C)C[C@H]2[C@H]2C(=O)C=C4[C@@]5(C)C=C(C#N)C(=O)C(C)(C)[C@@H]5CC[C@@]4(C)[C@]2(C)CC3)n1 [Compound T18] |  |  | 1.33 | 0.86 |  | 
12 | C[C@@H]1C(=O)C(C#N)=C[C@]2(C)C3=CC(=O)[C@@H]4[C@@H]5CC(C)(C)CC[C@]5(c5nnc(CF)o5)CC[C@@]4(C)[C@]3(C)CC[C@@H]12 [Compound T38] | 0.43 ± 0.14 | 3.95 ± 1.12 | 0.46 ± 0.02 | 0.20 ± 0.02 |  | 
13 | CC1(C)CC[C@]2(c3nc(C(C)(C)C)no3)CC[C@]3(C)[C@H](C(=O)C=C4[C@@]5(C)C=C(C#N)C(=O)C(C)(C)[C@@H]5CC[C@]43C)[C@@H]2C1 [Compound T28] |  |  | 22.3 | 13.75 |  | 
14 | COCCn1nnc([C@]23CCC(C)(C)C[C@H]2[C@H]2C(=O)C=C4[C@@]5(C)C=C(C#N)C(=O)C(C)(C)[C@@H]5CC[C@@]4(C)[C@]2(C)CC3)n1 [Compound T9] |  |  | 1.27 | 0.82 |  | 
15 | Cc1nnc([C@]23CCC(C)(C)C[C@H]2[C@H]2C(=O)C=C4[C@@]5(C)C=C(C#N)C(=O)[C@@H](C)[C@@H]5CC[C@@]4(C)[C@]2(C)CC3)o1 [CC4, reference compound] |  | 8.12 ± 3.53 | 0.66 ± 0.06 | 0.51 ± 0.02 |  | 
16 | COCCc1noc([C@]23CCC(C)(C)C[C@H]2[C@H]2C(=O)C=C4[C@@]5(C)C=C(C#N)C(=O)C(C)(C)[C@@H]5CC[C@@]4(C)[C@]2(C)CC3)n1 [Compound T15] |  |  | 0.6 ± 0.05 | 0.38 ± 0.04 |  | 
17 | CC(=O)OCCn1nnc([C@]23CCC(C)(C)C[C@H]2[C@H]2C(=O)C=C4[C@@]5(C)C=C(C#N)C(=O)C(C)(C)[C@@H]5CC[C@@]4(C)[C@]2(C)CC3)n1 [Compound T8] |  |  | 0.64 | 0.41 |  | 
18 | CC1(C)CC[C@]2(c3nc(C4CCCCC4)no3)CC[C@]3(C)[C@H](C(=O)C=C4[C@@]5(C)C=C(C#N)C(=O)C(C)(C)[C@@H]5CC[C@]43C)[C@@H]2C1 [Compound T33] |  |  | 25.6 | 15.81 |  | 
19 | CCCc1noc([C@]23CCC(C)(C)C[C@H]2[C@H]2C(=O)C=C4[C@@]5(C)C=C(C#N)C(=O)C(C)(C)[C@@H]5CC[C@@]4(C)[C@]2(C)CC3)n1 [Compound T26] |  |  | 7.82 | 4.83 |  | 
20 | CC1(C)CC[C@]2(c3nc(C4CCC4)no3)CC[C@]3(C)[C@H](C(=O)C=C4[C@@]5(C)C=C(C#N)C(=O)C(C)(C)[C@@H]5CC[C@]43C)[C@@H]2C1 [Compound T31] |  |  | 9.34 | 5.76 |  | 
